The source made the active and inactive calls. No cut-off for these calls is given here.
Columns and labels:
PANC-1 [1] = assay: Cytotoxicity against human PANC1 cells in nutrient-deprived condition assessed as cell death at 100 uM after 24 hrs by WST-8 assay; type: functional
PANC-1 [2] = assay: Cytotoxicity against human PANC1 cells in nutrient-deprived condition assessed as cell death at 200 uM after 24 hrs by WST-8 assay; type: functional
PANC-1 [3] = assay: Cytotoxicity against human PANC1 cells in nutrient-deprived condition at 0.01 ug/mL after 24 hrs by WST-8 assay; type: functional, cell-based
PANC-1 [4] = assay: Induction of apoptosis in human PANC1 cells in nutrient-deprived condition assessed as morphological changes at 3.125 to 12.5 uM up to 24 hrs by microscopy; type: functional, cell-based
PANC-1 [5] = assay: Cytotoxicity against human PANC1 cells in nutrient-deprived condition assessed as cell death at 6.25 uM after 24 hrs by WST-8 assay; type: functional

Row | Structure (SMILES) | Activity (PANC-1 [1]) | other results
1 | CC(C)=CCC/C(C)=C/COc1ccc2ccc(=O)oc2c1 | Active | –
2 | O=c1ccc2ccc(OC3CCCC3)cc2o1 | – | Activity (PANC-1 [2]): 100%
3 | CC(C)=CCOc1ccc2ccc(=O)oc2c1 [7-PRENYLOXYCOUMARIN] | 100% | –
4 | CC(C)(OC(=O)/C=C/c1ccc(O)cc1)[C@@H]1Cc2c(ccc3ccc(=O)oc23)O1 | – | Activity (PANC-1 [3]): Active
5 | CC(C)=CCC/C(C)=C/CC/C(C)=C/COc1cc2ccccc2oc1=O | Active | –
6 | CC(C)=CCC/C(C)=C/CC/C(C)=C/CC/C(C)=C/COc1ccc2ccc(=O)oc2c1 | Active | Activity (PANC-1 [4]): Active; Activity (PANC-1 [5]): 100%
